Tested on: panel of breast cancer cell lines
Assay: Compound A with targeted agents and chemotherapies, 72-hour in vitro proliferation assays
Format: cell-based
Details: 72-hour proliferation
[1] = BT-20 cell line, compound A × partner
[2] = CAL-51 cell line, compound A × partner
[3] = CAL-85-1 cell line, compound A × partner
[4] = CAL-120 cell line, compound A × partner
[5] = CAL-148 cell line, compound A × partner
[6] = CAMA-1 cell line, compound A × partner
[7] = DU-4475 cell line, compound A × partner
[8] = EVSA-T cell line, compound A × partner
[9] = HCC1143 cell line, compound A × partner
[10] = MCF7 cells, Compound A × partner agent
[11] = AU565 cell line, compound A × partner

Structure (SMILES): CCN1CCN(Cc2ccc(Nc3ncc(F)c(-c4cc(F)c5nc(C)n(C(C)C)c5c4)n3)nc2)CC1 [Abemaciclib]
- Best CI [1]: 0.79
- Bliss Volume [1]: 3.95
- HSA volume [1]: 5.53
- Loewe Volume [1]: 5.32
- Best CI [2]: 1.31
- Bliss Volume [2]: 1.55
- HSA volume [2]: −0.56
- Loewe Volume [2]: 2.06
- Synergy Score [2]: 2.51
- Best CI [3]: 0.77
- Bliss Volume [3]: 2.60
- HSA volume [3]: 3.28
- Loewe Volume [3]: 3.04
- Synergy Score [3]: 6.47
- Best CI [4]: 1.78
- Bliss Volume [4]: −5.16
- HSA volume [4]: −5.98
- Loewe Volume [4]: −5.00
- Synergy Score [4]: 1.03
- Best CI [5]: 0.70
- Bliss Volume [5]: 6.48
- HSA volume [5]: 5.91
- Loewe Volume [5]: 6.28
- Synergy Score [5]: 15.50
- Best CI [6]: 0.32
- Bliss Volume [6]: −6.25
- HSA volume [6]: −10.24
- Loewe Volume [6]: −10.33
- Synergy Score [6]: 1.56
- Best CI [7]: 1.25
- Bliss Volume [7]: 6.92
- HSA volume [7]: 5.32
- Loewe Volume [7]: 5.72
- Synergy Score [7]: 5.07
- Best CI [8]: 0.64
- Bliss Volume [8]: 0.41
- HSA volume [8]: −2.86
- Loewe Volume [8]: −2.48
- Synergy Score [8]: 0.77
- Best CI (HCC38, compound A × partner): 0.83
- Bliss Volume (HCC38, compound A × partner): −4.64
- HSA volume (HCC38, compound A × partner): −4.71
- Loewe Volume (HCC38, compound A × partner): −4.54
- Synergy Score (HCC38, compound A × partner): 6.14
- Best CI (HCC70, compound A × partner): 0.92
- Bliss Volume (HCC70, compound A × partner): 10.18
- HSA volume (HCC70, compound A × partner): 6.99
- Loewe Volume (HCC70, compound A × partner): 8.33
- Synergy Score (HCC70, compound A × partner): 18.15
- Best CI [9]: 0.41
- Bliss Volume [9]: 10.33
- HSA volume [9]: 2.87
- Loewe Volume [9]: 9.43
- Synergy Score [9]: 7.43
- Best CI (HCC1569, compound A × partner): 0.18
- Bliss Volume (HCC1569, compound A × partner): 14.07
- HSA volume (HCC1569, compound A × partner): 13.17
- Loewe Volume (HCC1569, compound A × partner): 14.38
- Synergy Score (HCC1569, compound A × partner): 19.73
- Bliss Volume (HCC1806, compound A × partner): 4.89
- HSA volume (HCC1806, compound A × partner): 0.30
- Loewe Volume (HCC1806, compound A × partner): 3.10
- Synergy Score (HCC1806, compound A × partner): 4.43
- Best CI (HCC1937, compound A × partner): 0.26
- Bliss Volume (HCC1937, compound A × partner): 16.67
- Loewe Volume (HCC1937, compound A × partner): 16.44
- Synergy Score (HCC1937, compound A × partner): 28.56
- Best CI (HCC1954, compound A × partner): 0.89
- Bliss Volume (HCC1954, compound A × partner): 1.45
- HSA volume (HCC1954, compound A × partner): −0.39
- Loewe Volume (HCC1954, compound A × partner): −1.29
- Synergy Score (HCC1954, compound A × partner): 12.74
- Best CI (HCC2218, compound A × partner): 1.44
- Bliss Volume (HCC2218, compound A × partner): −2.40
- HSA volume (HCC2218, compound A × partner): −5.74
- Loewe Volume (HCC2218, compound A × partner): −6.61
- Synergy Score (HCC2218, compound A × partner): 4.14
- Best CI (HDQ-P1, compound A × partner): 0.82
- Bliss Volume (HDQ-P1, compound A × partner): −0.79
- HSA volume (HDQ-P1, compound A × partner): −0.19
- Loewe Volume (HDQ-P1, compound A × partner): 0.43
- Synergy Score (HDQ-P1, compound A × partner): 2.48
- Best CI (HMC-1-8, compound A × partner): 0.30
- Bliss Volume (HMC-1-8, compound A × partner): 24.27
- HSA volume (HMC-1-8, compound A × partner): 13.46
- Loewe Volume (HMC-1-8, compound A × partner): 13.14
- Synergy Score (HMC-1-8, compound A × partner): 24.23
- Best CI (JIMT-1, compound A × partner): 1.23
- Bliss Volume (JIMT-1, compound A × partner): 1.74
- HSA volume (JIMT-1, compound A × partner): 1.30
- Loewe Volume (JIMT-1, compound A × partner): 1.54
- Synergy Score (JIMT-1, compound A × partner): 1.34
- Best CI (KPL-1, compound A × partner): 0.77
- Bliss Volume (KPL-1, compound A × partner): −3.02
- HSA volume (KPL-1, compound A × partner): −1.63
- Loewe Volume (KPL-1, compound A × partner): −2.87
- Best CI [10]: 1.06
- Bliss Volume [10]: 4.62
- HSA volume [10]: 4.76
- Synergy Score [10]: 8.46

Structure (SMILES): Cn1ncnc1[C@H]1c2n[nH]c(=O)c3cc(F)cc(c23)N[C@@H]1c1ccc(F)cc1 [BMN 673]
- Best CI [11]: 0.72
- Bliss Volume [11]: 5.62
- HSA volume [11]: 2.94
- Synergy Score [11]: 8.12
- Best CI [1]: 0.67
- Bliss Volume [1]: 6.61
- HSA volume [1]: 7.19
- Loewe Volume [1]: 7.05
- Synergy Score [1]: 13.00
- Best CI [2]: 0.26
- Bliss Volume [2]: 6.45
- HSA volume [2]: 8.03
- Loewe Volume [2]: 8.01
- Synergy Score [2]: 6.14
- Best CI [3]: 0.10
- Bliss Volume [3]: 9.61
- HSA volume [3]: 13.84
- Loewe Volume [3]: 13.04
- Synergy Score [3]: 13.48
- Best CI [4]: 2.73
- Bliss Volume [4]: −3.70
- HSA volume [4]: −7.12
- Loewe Volume [4]: −9.94
- Synergy Score [4]: 0.01
- Best CI [5]: 0.03
- Bliss Volume [5]: 32.27
- HSA volume [5]: 30.51
- Loewe Volume [5]: 33.70
- Synergy Score [5]: 51.37
- Best CI [6]: 0.44
- Bliss Volume [6]: 14.84
- HSA volume [6]: 11.15
- Loewe Volume [6]: 11.46
- Best CI [7]: 0.90
- Bliss Volume [7]: 14.54
- HSA volume [7]: 11.67
- Loewe Volume [7]: 11.80
- Synergy Score [7]: 12.59
- Best CI [8]: 0.76
- Bliss Volume [8]: 12.51
- HSA volume [8]: 5.77
- Loewe Volume [8]: 5.78
- Synergy Score [8]: 7.17
- Best CI (HCC38, compound A × partner): 0.09
- Bliss Volume (HCC38, compound A × partner): 12.68
- Loewe Volume (HCC38, compound A × partner): 13.43
- Synergy Score (HCC38, compound A × partner): 20.73
- Best CI (HCC70, compound A × partner): 0.39
- Bliss Volume (HCC70, compound A × partner): 15.24
- HSA volume (HCC70, compound A × partner): 15.02
- Loewe Volume (HCC70, compound A × partner): 15.13
- Best CI [9]: 0.53
- Bliss Volume [9]: 0.82
- HSA volume [9]: 2.15
- Loewe Volume [9]: 1.38
- Synergy Score [9]: 4.91
- Best CI (HCC1569, compound A × partner): 0.55
- Bliss Volume (HCC1569, compound A × partner): 9.55
- HSA volume (HCC1569, compound A × partner): 11.82
- Loewe Volume (HCC1569, compound A × partner): 11.51
- Synergy Score (HCC1569, compound A × partner): 10.50
- Best CI (HCC1806, compound A × partner): 0.15
- Bliss Volume (HCC1806, compound A × partner): 15.34
- HSA volume (HCC1806, compound A × partner): 21.19
- Loewe Volume (HCC1806, compound A × partner): 21.61
- Synergy Score (HCC1806, compound A × partner): 26.09
- Best CI (HCC1937, compound A × partner): 0.51
- Bliss Volume (HCC1937, compound A × partner): 5.18
- HSA volume (HCC1937, compound A × partner): 0.65
- Loewe Volume (HCC1937, compound A × partner): 4.96
- Synergy Score (HCC1937, compound A × partner): 3.27
- Best CI (HCC1954, compound A × partner): 0.56
- Bliss Volume (HCC1954, compound A × partner): 7.66
- HSA volume (HCC1954, compound A × partner): 7.39
- Loewe Volume (HCC1954, compound A × partner): 8.33
- Synergy Score (HCC1954, compound A × partner): 9.80
- Best CI (HCC2218, compound A × partner): 0.90
- Bliss Volume (HCC2218, compound A × partner): 1.41
- HSA volume (HCC2218, compound A × partner): 0.71
- Loewe Volume (HCC2218, compound A × partner): 0.15
- Synergy Score (HCC2218, compound A × partner): 5.35
- Best CI (HDQ-P1, compound A × partner): 0.91
- Bliss Volume (HDQ-P1, compound A × partner): 0.31
- HSA volume (HDQ-P1, compound A × partner): −0.95
- Loewe Volume (HDQ-P1, compound A × partner): −0.15
- Synergy Score (HDQ-P1, compound A × partner): 1.09
- Best CI (HMC-1-8, compound A × partner): 0.22
- Bliss Volume (HMC-1-8, compound A × partner): 22.38
- HSA volume (HMC-1-8, compound A × partner): 11.38
- Loewe Volume (HMC-1-8, compound A × partner): 11.09
- Synergy Score (HMC-1-8, compound A × partner): 19.54
- Best CI (JIMT-1, compound A × partner): 0.13
- Bliss Volume (JIMT-1, compound A × partner): −0.56
- HSA volume (JIMT-1, compound A × partner): −1.70
- Loewe Volume (JIMT-1, compound A × partner): −1.62
- Synergy Score (JIMT-1, compound A × partner): 1.28
- Best CI (KPL-1, compound A × partner): 0.53
- Bliss Volume (KPL-1, compound A × partner): −2.58
- HSA volume (KPL-1, compound A × partner): 0.29
- Synergy Score (KPL-1, compound A × partner): 1.84

From US11931424B2, “Combination MCL-1 inhibitors with anti-body drug conjugates” (Gilead Sciences, Inc., priority 2021, dated 2024)
